Measurements: ChEMBL document CHEMBL2440076, “New triarylpyrazoles as broad-spectrum anticancer agents: design, synthesis, and biological evaluation” (Eur J Med Chem, 2013)

Legend:
Assay type in all cases: functional
SK-MEL-5 [1] = assay: Growth inhibition of human SK-MEL-5 cells assessed as cell growth at 10^-5 M after 48 hrs by sulforhodamine B assay; details: SK-MEL-5, 48 h, read-out: Activity
HOP-92 [2] = assay: Growth inhibition of human HOP92 cells assessed as cell growth at 10^-8 M after 48 hrs by sulforhodamine B assay; details: HOP-92, 48 h, read-out: Activity
HCT-15 = assay: Growth inhibition of human HCT15 cells assessed as cell growth at 10^-6 M after 48 hrs by sulforhodamine B assay; details: HCT-15, 48 h, read-out: Activity
KM12 = assay: Growth inhibition of human KM12 cells assessed as cell growth at 10^-5 M after 48 hrs by sulforhodamine B assay; details: KM12, 48 h, read-out: Activity
NCI-H226 = assay: Growth inhibition of human NCI-H226 cells assessed as cell growth at 10^-8 M after 48 hrs by sulforhodamine B assay; details: NCI-H226, 48 h, read-out: Activity
HT-29 = assay: Growth inhibition of human HT-29 cells assessed as cell growth at 10^-6 M after 48 hrs by sulforhodamine B assay; details: HT-29, 48 h, read-out: Activity
SK-MEL-5 [3] = assay: Growth inhibition of human SK-MEL-5 cells assessed as cell growth at 10^-8 M after 48 hrs by sulforhodamine B assay; details: SK-MEL-5, 48 h, read-out: Activity
IGROV-1 = assay: Growth inhibition of human IGROV1 cells assessed as cell growth at 10^-5 M after 48 hrs by sulforhodamine B assay; details: IGROV-1, 48 h, read-out: Activity
HOP-62 [4] = assay: Growth inhibition of human HOP62 cells assessed as cell growth at 10^-5 M after 48 hrs by sulforhodamine B assay; details: HOP-62, 48 h, read-out: Activity
HL-60(TB) = assay: Growth inhibition of human HL-60(TB) cells assessed as cell growth at 10^-5 M after 48 hrs by sulforhodamine B assay; details: HL-60, 48 h, read-out: Activity
SF-268 = assay: Growth inhibition of human SF268 cells assessed as cell growth at 10^-4 M after 48 hrs by sulforhodamine B assay; details: SF-268, 48 h, read-out: Activity
UACC-62 [5] = assay: Growth inhibition of human UACC62 cells assessed as cell growth at 10^-5 M after 48 hrs by sulforhodamine B assay; details: UACC-62, 48 h, read-out: Activity
OVCAR-4 = assay: Growth inhibition of human OVCAR4 cells assessed as cell growth at 10^-5 M after 48 hrs by sulforhodamine B assay; details: OVCAR-4, 48 h, read-out: Activity
NCI-H322M [6] = assay: Growth inhibition of human NCI-H322M cells assessed as cell growth at 10^-8 M after 48 hrs by sulforhodamine B assay; details: read-out: Activity
TK-10 = assay: Growth inhibition of human TK10 cells assessed as cell growth at 10^-4 M after 48 hrs by sulforhodamine B assay; details: TK-10, 48 h, read-out: Activity
SK-MEL-5 [7] = assay: Growth inhibition of human SK-MEL-5 cells assessed as cell growth at 10^-4 M after 48 hrs by sulforhodamine B assay; details: SK-MEL-5, 48 h, read-out: Activity
Malme-3M = assay: Growth inhibition of human MALME-3M cells assessed as cell growth at 10^-4 M after 48 hrs by sulforhodamine B assay; details: read-out: Activity
[8] = Growth inhibition of human Hs 578T cells assessed as cell growth at 10^-6 M after 48 hrs by sulforhodamine B assay; details: read-out: Activity
COLO 205 [9] = assay: Growth inhibition of human COLO205 cells assessed as cell growth at 10^-6 M after 48 hrs by sulforhodamine B assay; details: COLO 205, 48 h, read-out: Activity
HOP-62 [10] = assay: Growth inhibition of human HOP62 cells assessed as cell growth at 10^-6 M after 48 hrs by sulforhodamine B assay; details: HOP-62, 48 h, read-out: Activity
SK-MEL-5 [11] = assay: Growth inhibition of human SK-MEL-5 cells assessed as cell growth at 10^-6 M after 48 hrs by sulforhodamine B assay; details: SK-MEL-5, 48 h, read-out: Activity
OVCAR-5 = assay: Growth inhibition of human OVCAR5 cells assessed as cell growth at 10^-8 M after 48 hrs by sulforhodamine B assay; details: OVCAR-5, 48 h, read-out: Activity
CCRF-CEM = assay: Growth inhibition of human CCRF-CEM cells assessed as cell growth at 10^-7 M after 48 hrs by sulforhodamine B assay; details: read-out: Activity
NCI-H460 = assay: Growth inhibition of human NCI-H460 cells assessed as cell growth at 10^-8 M after 48 hrs by sulforhodamine B assay; details: NCI-H460, 48 h, read-out: Activity
OVCAR-8 = assay: Growth inhibition of human OVCAR8 cells assessed as cell growth at 10^-7 M after 48 hrs by sulforhodamine B assay; details: OVCAR-8, 48 h, read-out: Activity
COLO 205 [12] = assay: Growth inhibition of human COLO205 cells assessed as cell growth at 10^-8 M after 48 hrs by sulforhodamine B assay; details: COLO 205, 48 h, read-out: Activity
MDA-MB-468 [13] = assay: Growth inhibition of human MDA-MB-468 cells assessed as cell growth at 10^-5 M after 48 hrs by sulforhodamine B assay; details: MDA-MB-468, 48 h, read-out: Activity
SNB-75 [14] = assay: Growth inhibition of human SNB75 cells assessed as cell growth at 10^-6 M after 48 hrs by sulforhodamine B assay; details: SNB-75, 48 h, read-out: Activity
SK-MEL-2 = assay: Growth inhibition of human SK-MEL-2 cells assessed as cell growth at 10^-8 M after 48 hrs by sulforhodamine B assay; details: SK-MEL-2, 48 h, read-out: Activity
MDA-MB-468 [15] = assay: Growth inhibition of human MDA-MB-468 cells assessed as cell growth at 10^-4 M after 48 hrs by sulforhodamine B assay; details: MDA-MB-468, 48 h, read-out: Activity
UACC-62 [16] = assay: Growth inhibition of human UACC62 cells assessed as cell growth at 10^-6 M after 48 hrs by sulforhodamine B assay; details: UACC-62, 48 h, read-out: Activity
MDA-MB-435 = assay: Growth inhibition of human MDA-MB-435 cells assessed as cell growth at 10^-5 M after 48 hrs by sulforhodamine B assay; details: MDA-MB-435, 48 h, read-out: Activity
786-0 = assay: Growth inhibition of human 786-0 cells assessed as cell growth at 10^-6 M after 48 hrs by sulforhodamine B assay; details: 786-0, 48 h, read-out: Activity
NCI-H322M [17] = assay: Growth inhibition of human NCI-H322M cells assessed as cell growth at 10^-6 M after 48 hrs by sulforhodamine B assay; details: read-out: Activity
SNB-75 [18] = assay: Growth inhibition of human SNB75 cells assessed as cell growth at 10^-8 M after 48 hrs by sulforhodamine B assay; details: SNB-75, 48 h, read-out: Activity
RXF 393 = assay: Growth inhibition of human RXF393 cells assessed as cell growth at 10^-8 M after 48 hrs by sulforhodamine B assay; details: RXF 393, 48 h, read-out: Activity
HOP-92 [19] = assay: Growth inhibition of human HOP92 cells assessed as cell growth at 10^-6 M after 48 hrs by sulforhodamine B assay; details: HOP-92, 48 h, read-out: Activity
ACHN = assay: Growth inhibition of human ACHN cells assessed as cell growth at 10^-5 M after 48 hrs by sulforhodamine B assay; details: read-out: Activity

Row | Structure (SMILES) | growth at 10 µM (SK-MEL-5 [1]) [%] | growth at 0.01 µM (HOP-92 [2]) [%] | growth at 1 µM (HCT-15) [%] | growth at 10 µM (KM12) [%] | growth at 0.01 µM (NCI-H226) [%] | growth at 1 µM (HT-29) [%] | growth at 0.01 µM (SK-MEL-5 [3]) [%] | growth at 10 µM (IGROV-1) [%] | growth at 10 µM (HOP-62 [4]) [%] | growth at 10 µM (HL-60(TB)) [%] | growth at 100 µM (SF-268) [%] | growth at 10 µM (UACC-62 [5]) [%] | growth at 10 µM (OVCAR-4) [%] | growth at 0.01 µM (NCI-H322M [6]) [%] | growth at 100 µM (TK-10) [%] | growth at 100 µM (SK-MEL-5 [7]) [%] | growth at 100 µM (Malme-3M) [%] | growth at 1 µM [8] [%] | growth at 1 µM (COLO 205 [9]) [%] | growth at 1 µM (HOP-62 [10]) [%] | also measured
1 | COc1cc(-c2nn(-c3cccc(NC(=O)c4ccccc4)c3)cc2-c2ccncc2)ccc1Cl | -60 | 93 | 40 | 10 | 97 | 17 | 97 | 28 | 48 | 13 | 14 | 25 | 33 | 98 | 23 | -85 | 20 | 52 | 32 | 72 | growth at 1 µM (SK-MEL-5 [11]): 10%; growth at 0.01 µM (OVCAR-5): 95%; growth at 0.1 µM (CCRF-CEM): 101%; growth at 0.01 µM (NCI-H460): 102%; growth at 0.1 µM (OVCAR-8): 105%; growth at 0.01 µM (COLO 205 [12]): 100%; growth at 10 µM (MDA-MB-468 [13]): -15%; growth at 1 µM (SNB-75 [14]): 39%; growth at 0.01 µM (SK-MEL-2): 93%; growth at 100 µM (MDA-MB-468 [15]): -27%; growth at 1 µM (UACC-62 [16]): 41%; growth at 10 µM (MDA-MB-435): -48%; growth at 1 µM (786-0): 56%; growth at 1 µM (NCI-H322M [17]): 78%; growth at 0.01 µM (SNB-75 [18]): 89%; growth at 0.01 µM (RXF 393): 100%; growth at 1 µM (HOP-92 [19]): 15%; growth at 10 µM (ACHN): 26%
2 | COc1cc(-c2nn(-c3cccc(NC(=O)c4ccc(N5CCOCC5)c(C(F)(F)F)c4)c3)cc2-c2ccncc2)ccc1Cl | -55 | 70 | 27 | -6 | 102 | 9 | 95 | -7 | 31 | 2 | 10 | -4 | 32 | 103 | -7 | -85 | -24 | 6 | 5 | 38 | growth at 1 µM (SK-MEL-5 [11]): -11%; growth at 0.01 µM (OVCAR-5): 95%; growth at 0.1 µM (CCRF-CEM): 73%; growth at 0.01 µM (NCI-H460): 100%; growth at 0.1 µM (OVCAR-8): 91%; growth at 0.01 µM (COLO 205 [12]): 106%; growth at 10 µM (MDA-MB-468 [13]): -64%; growth at 1 µM (SNB-75 [14]): -2%; growth at 0.01 µM (SK-MEL-2): 111%; growth at 100 µM (MDA-MB-468 [15]): -53%; growth at 1 µM (UACC-62 [16]): 42%; growth at 10 µM (MDA-MB-435): -36%; growth at 1 µM (786-0): 45%; growth at 1 µM (NCI-H322M [17]): 36%; growth at 0.01 µM (SNB-75 [18]): 89%; growth at 0.01 µM (RXF 393): 118%; growth at 1 µM (HOP-92 [19]): -5%; growth at 10 µM (ACHN): 2%
